One assay deals with Escherichia coli. As to the kind of experiment: Inhibition of Escherichia coli. It is filed as cell-based.
For a further assay, the target named is CB2 receptor (Homo sapiens, UniProt P34972). The assay is described as follows: CB2 receptor displacement. The class given is binding.
The test system of a further assay is Trypanosoma brucei. As to the kind of experiment: Inhibition of Trypanosoma brucei. The class given is cell-based.
The next assay has as its target Mu opioid receptor (Homo sapiens, UniProt P35372). As to the kind of experiment: Mu opioid receptor displacement. It is filed as binding.
In a further assay the target is Delta opioid receptor (Homo sapiens, UniProt P41143). The assay is described as follows: Delta opioid receptor displacement. It is filed as binding.
For the next assay, the system named is Leishmania donovani. The assay is described as follows: Activity towards Leishmania donovani. It is filed as cell-based.

These results are taken from publication PMC6098982 (Natural product research, 2018).

Chain of CB2 receptor (P34972 whole entry): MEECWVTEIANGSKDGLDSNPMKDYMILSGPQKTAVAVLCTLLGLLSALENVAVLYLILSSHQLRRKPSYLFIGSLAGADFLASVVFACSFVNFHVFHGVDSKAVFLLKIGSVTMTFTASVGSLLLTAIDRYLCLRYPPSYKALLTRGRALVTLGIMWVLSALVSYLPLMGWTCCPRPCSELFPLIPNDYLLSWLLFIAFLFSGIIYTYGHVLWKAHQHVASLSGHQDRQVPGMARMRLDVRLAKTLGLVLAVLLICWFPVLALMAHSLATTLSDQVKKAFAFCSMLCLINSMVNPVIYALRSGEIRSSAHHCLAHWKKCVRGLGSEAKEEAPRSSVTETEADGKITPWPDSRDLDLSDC
Chain of Mu opioid receptor (P35372 whole entry): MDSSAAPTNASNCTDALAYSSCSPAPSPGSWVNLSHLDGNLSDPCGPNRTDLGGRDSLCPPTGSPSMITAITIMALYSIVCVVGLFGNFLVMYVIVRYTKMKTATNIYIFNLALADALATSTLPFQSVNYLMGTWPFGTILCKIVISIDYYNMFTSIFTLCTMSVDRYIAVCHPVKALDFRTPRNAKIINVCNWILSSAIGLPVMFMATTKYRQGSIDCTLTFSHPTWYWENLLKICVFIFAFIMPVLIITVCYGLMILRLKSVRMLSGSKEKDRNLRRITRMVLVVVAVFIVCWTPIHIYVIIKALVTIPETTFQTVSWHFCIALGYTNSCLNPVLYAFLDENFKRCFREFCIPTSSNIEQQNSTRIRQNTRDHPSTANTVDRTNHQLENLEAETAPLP
Chain of Delta opioid receptor (P41143 whole entry): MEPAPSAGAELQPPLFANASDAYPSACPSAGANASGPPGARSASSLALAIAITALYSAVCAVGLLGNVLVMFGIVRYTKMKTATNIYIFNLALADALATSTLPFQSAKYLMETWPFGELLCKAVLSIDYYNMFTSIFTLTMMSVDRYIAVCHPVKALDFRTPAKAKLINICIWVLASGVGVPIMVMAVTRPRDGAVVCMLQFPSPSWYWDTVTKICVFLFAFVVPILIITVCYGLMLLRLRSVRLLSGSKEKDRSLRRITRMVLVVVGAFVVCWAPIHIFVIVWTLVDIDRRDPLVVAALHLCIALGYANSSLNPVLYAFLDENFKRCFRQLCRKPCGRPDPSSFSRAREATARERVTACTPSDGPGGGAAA

For the compound myricitrin [Compound 11], in the assay on Escherichia coli, the “inhibition towards Escherichia coli Pinh” value amounted to 99%. Besides, the IC50 in the assay with Escherichia coli (read-out: IC50 Escherichia coli) is 1.12 µM.
Take `CC1=C[C@H](O)CC(C)(C)[C@H]1/C=C/C(C)=C/C=C/C(C)=C/C=C/C=C(C)/C=C/C=C(C)/C=C/C1=C(C)C[C@@H](O)CC1(C)C` [Compound 4, lutein]: the IC50 was found to be 56.5 µM at CB2 receptor; 4.16 µM in the assay on Trypanosoma brucei (Trypanosoma brucei, read-out: IC50 T. brucei); 9.3 µM in the assay on Leishmania donovani (Leishmania donovani, read-out: IC50 Leishmania donovani). Also, on CB2 receptor, the “displacement in CB2 receptor” value was 73%. Besides, the “inhibition towards Trypanosoma brucei” value with Trypanosoma brucei came out at 93%. On Mu opioid receptor, the “displacement in Mu opioid receptor” value worked out at 49%. Further, the “displacement in Delta opioid receptor” value on Delta opioid receptor amounted to 65%. The “activity towards Leishmania donovani” value in the assay on Leishmania donovani is on record as 48%.
